{
  "source": "patent EP2335686A1",
  "about": "“An aqueous intravenous nanosuspension with reduced adverse effects” (LEK Pharmaceuticals d.d., priority 2009, dated 2011)",
  "origin": "cited, not measured here",
  "data": [
    {"smiles": "CC(C)c1cccc(C(C)C)c1O", "note": "[propofol]", "values": [
      {"measurement": "aqueous solubility at room temperature", "value": 0.0164, "unit": "µg/mL"}
    ]}
  ]
}
